Laboratory results published in patent publication US20220168392A1 (priority 2019, published 2022).
Values joined by “and” are separate entries in the source; they are usually repeats but may differ in a detail not shown here. Equal entries are not always repeated. Square brackets hold non-standard residues; d marks the D form. * marks the point of attachment. 2Nal = N[C@@H](Cc1ccc2ccccc2c1)C(=O)O; Propionyl = CCC(=O)*; Sar = CNCC(=O)O

Columns and labels:
[1] = system: CD2F1 mice exposed to TBI (7 Gy); experiment: Circulating biomarkers (EPO, FLT3 ligand, MMP9, VCAM1, E-Selectin, sP-Selectin) after 7 Gy TBI; type: in vivo, mouse
Description: Harvesting blood and tissues for various molecular assays: RWJ-800088 (0.3 mg/kg) or saline (n=6 per group) was administered SC 24 hour prior to irradiation. The experimental animals received either 0 or 7 Gy radiation (non-lethal dose) in the AFRRI Co-60 gamma radiation facility. […] The femurs and sterna were then collected and processed as described below.

[2] = system: CD2F1 male mice exposed to TBI; experiment: 30-day survival after total body irradiation (TBI) in CD2F1 mice; type: in vivo, mouse; details: for Survival Differential (Treatment-Vehicle) / Survival treatment: CD2F1 M; for Dose Reduction Factor: male CD2F1
[3] = 9.25 Gy, 0.3 mg/kg single dose, Post 4 hr
[4] = 9.25 Gy, 0.3 mg/kg single dose, Pre −24 hr
[5] = 9.3 Gy, 0.3 mg/kg single dose, Post 24 hr
[6] = 9.3 Gy, 1 mg/kg single dose, Post 24 hr
[7] = 9.35 Gy, 0.1 mg/kg single dose, Post 24 hr
[8] = 9.35 Gy, 0.3 mg/kg single dose, Post 24 hr, listed as TPOm, 0.3 mg/kg
[9] = 9.35 Gy, 0.3 mg/kg, 2 doses 12 hours apart, Post, first dose 24 hr
[10] = 9.35 Gy, 0.3 mg/kg, 3 doses 8 hours apart, Post, first dose 24 hr
[11] = 9.35 Gy, 1 mg/kg single dose, Post 24 hr
[12] = 9.35 Gy, 2 mg/kg single dose, Post 24 hr
[13] = 9.35 Gy, 3 mg/kg single dose, Post 24 hr
[14] = 9.75 Gy, 0.1 mg/kg single dose, Post 4 hr
[15] = 9.75 Gy, 0.1 mg/kg single dose, Pre −24 hr
[16] = 9.75 Gy, 0.3 mg/kg single dose, Post 4 hr
[17] = 9.75 Gy, 0.3 mg/kg single dose, Pre −2 hr
[18] = 9.75 Gy, 0.3 mg/kg single dose, Pre −12 hr
[19] = 9.75 Gy, 0.3 mg/kg single dose, Pre −24 hr, listed as TPOm, 0.3 mg/kg
[20] = 9.75 Gy, 1 mg/kg single dose, Post 4 hr, listed as TPOm, 1 mg/kg
[21] = 9.75 Gy, 1 mg/kg single dose, Post 8 hr
[22] = 9.75 Gy, 1 mg/kg single dose, Post 12 hr
[23] = 9.75 Gy, 1 mg/kg single dose, Pre −24 hr
[24] = 9.75 Gy, 2 mg/kg single dose, Pre −24 hr
[25] = 9.75 Gy, 3 mg/kg single dose, Post 4 hr
[26] = 9.75 Gy, 3 mg/kg single dose, Pre −24 hr
[27] = 10.5 Gy, 0.1 mg/kg single dose, Pre −24 hr
[28] = 10.5 Gy, 0.3 mg/kg single dose, Pre −24 hr
[29] = 10.5 Gy, 1 mg/kg single dose, Pre −24 hr
[30] = 10.5 Gy, 3 mg/kg single dose, Pre −24 hr, listed as TPOm, 3 mg/kg
[31] = 11 Gy, 1 mg/kg single dose, Pre −2 hr
[32] = 11 Gy, 1 mg/kg single dose, Pre −12 hr
[33] = 11 Gy, 1 mg/kg single dose, Pre −24 hr, listed as TPOm, 1 mg/kg
[34] = 11.5 Gy, 3 mg/kg single dose, Pre −24 hr
[35] = 11.75 Gy, 3 mg/kg single dose, Pre −24 hr
[36] = 12 Gy, 1 mg/kg single dose, Pre −24 hr
[37] = 12 Gy, 3 mg/kg single dose, Pre −24 hr
[38] = 12.5 Gy, 1 mg/kg single dose, Pre −24 hr
[39] = 12.5 Gy, 3 mg/kg single dose, Pre −24 hr
[40] = 13 Gy, 1 mg/kg single dose, Pre −24 hr
[41] = 13.5 Gy, 1 mg/kg single dose, Pre −24 hr
[42] = 14 Gy, 1 mg/kg single dose, Pre −24 hr

For “methoxypolyethyleneglycol20000-propionyl-L-Isoleucyl-L-Glutamyl-Glycyl-L-Prolyl-L-Threonyl-L-Leucyl-L-Arginyl-L-Glutaminyl-L-2-Naphthylalanyl-L-Leucyl-L-Alanyl-L-Alanyl-L-Arginyl-Sarcosyl-Ne-(methoxypolyethyleneglycol20000-propionyl-L-Isoleucyl-L-Glutamyl-Glycyl-L-Prolyl-L-Threonyl-L-Leucyl-L-Arginyl-L-Glutaminyl-L-2-Naphthylalanyl-L-Leucyl-L-Alanyl-L-Alanyl-L-Arginyl-Sarcosyl-)-Lysinamide ({mPEG 20 kDa-Propionyl}-IEGPTLRQ[2Nal]LAAR[Sar]K-NH2; also: dimer: second identical mPEG-propionyl chain on Lys Nε of C-terminal lysinamide) [RWJ-800088]”, the “circulating levels of erythropoietin (EPO) vs vehicle treated irradiated mice” value ([1]; 7 Gy, 0.3 mg/kg 24 h pre-TBI (FIG. 5A)) was “significantly (p<0.0001) lower”, the “circulating levels of FLT3 ligand vs vehicle treated irradiated mice” value ([1]; 7 Gy, 0.3 mg/kg 24 h pre-TBI (FIG. 5B)) was “significantly (p<0.0001) lower” and the “circulating levels of sP-Selectin vs vehicle” value ([1]; days 2, 3, 7, and 15 post-irradiation) was “statistically significant increases (p<0.0001)”. For the same substance, the “circulating levels of E-Selectin vs vehicle” value ([1]; days 3, 7 15 and 30 post-irradiation) was “statistically significant increases (p<0.0001)”, the “circulating levels of MMP-9 vs vehicle” value ([1]; days 7 and 15 post-irradiation) was “statistically significant increases (p<0.0001)” and the “circulating levels of VCAM-1 vs vehicle” value ([1]; days 15 and 30 post-irradiation) was “statistically significant increases (p<0.0001)”. The “dose dependence of survival” value ([2]; CD2F1, 24 hours post-TBI (9.3 Gy), doses 0.1 to 3 mg/kg (FIG. 12A)) was “increase in survival from 0.1 to 1 mg/kg and then a slight reduction in the survival benefit at 2 and 3 mg/kg”, the “Survival Differential (Treatment-Vehicle)” value (“Survival Differential” below) [2, 3] was 53% and the Survival treatment [2, 3] was 88%. For the same substance, the “Survival Differential” value [2, 4] was 41%, the Survival treatment [2, 4] was 83% and the “Survival Differential” value [2, 5] was 42%. The Survival treatment [2, 5] was 71%, the “Survival Differential” value [2, 6] was 50% and the Survival treatment [2, 6] was 79%. For the same substance, the “Survival Differential” value [2, 7] was 25%, the Survival treatment [2, 7] was 58% and the Survival treatment ([2]; 9.35 Gy, 0.3 mg/kg single dose, Post 24 hr, 0.3 mg/kg) was 71%. For the same substance, the “Survival Differential” value [2, 8] was 25% and 17%, the Survival treatment [2, 8] was 58% and 71% and the “Survival Differential” value [2, 9] was 21%. The Survival treatment [2, 9] was 54%, the “Survival Differential” value [2, 10] was 8% and the Survival treatment [2, 10] was 50%. For the same substance, the “Survival Differential” value [2, 11] was 29%, the Survival treatment [2, 11] was 63% and the “Survival Differential” value [2, 12] was 17%. For the same substance, the Survival treatment [2, 12] was 50%, the “Survival Differential” value [2, 13] was 13% and the Survival treatment [2, 13] was 46%. For the same substance, the “Survival Differential” value [2, 14] was 21%, the Survival treatment [2, 14] was 42% and the “Survival Differential” value [2, 15] was 92%. The Survival treatment [2, 15] was 92%, the “Survival Differential” value [2, 16] was 42% and the Survival treatment [2, 16] was 63%. For the same substance, the “Survival Differential” value [2, 17] was 58%, the Survival treatment [2, 17] was 92% and the “Survival Differential” value [2, 18] was 96%. For the same substance, the Survival treatment [2, 18] was 100%, the “Survival Differential” value [2, 19] was 92% and 96% and the Survival treatment [2, 19] was 92% and 100%. The “Survival Differential” value [2, 20] was 67% and 60%, the Survival treatment [2, 20] was 88% and 80% and the “Survival Differential” value [2, 21] was 80%. The Survival treatment [2, 21] was 90%, the “Survival Differential” value [2, 22] was 50% and the Survival treatment [2, 22] was 70%. The “Survival Differential” value [2, 23] was 92%, the Survival treatment [2, 23] was 92% and the “Survival Differential” value [2, 24] was 96%. The Survival treatment [2, 24] was 96%, the “Survival Differential” value [2, 25] was 33% and the Survival treatment [2, 25] was 54%. For the same substance, the “Survival Differential” value [2, 26] was 100%, the Survival treatment [2, 26] was 100% and the “Survival Differential” value [2, 27] was 90%. For the same substance, the Survival treatment [2, 27] was 90%, the “Survival Differential” value [2, 28] was 95% and the Survival treatment [2, 28] was 95%. The “Survival Differential” value [2, 29] was 100%, the Survival treatment [2, 29] was 100% and the “Survival Differential” value [2, 30] was 90% and 100%. For the same substance, the Survival treatment [2, 30] was 90% and 100%, the “Survival Differential” value ([2]; 11 Gy, 0.1 mg/kg single dose, Pre −24 hr) was 54% and the Survival treatment ([2]; 11 Gy, 0.1 mg/kg single dose, Pre −24 hr, 0.1 mg/kg) was 54%. The Survival treatment ([2]; 11 Gy, 0.1 mg/kg single dose, Pre −24 hr, listed as TPOm, 0.1 mg/kg) was 54%, the “Survival Differential” value ([2]; 11 Gy, 0.3 mg/kg single dose, Pre −24 hr) was 83% and the Survival treatment ([2]; 11 Gy, 0.3 mg/kg single dose, Pre −24 hr, 0.3 mg/kg) was 83%. For the same substance, the Survival treatment ([2]; 11 Gy, 0.3 mg/kg single dose, Pre −24 hr, listed as TPOm, 0.3 mg/kg) was 83%, the “Survival Differential” value [2, 31] was 17% and the Survival treatment [2, 31] was 17%. For the same substance, the “Survival Differential” value [2, 32] was 100%, the Survival treatment [2, 32] was 100% and the Survival treatment ([2]; 11 Gy, 1 mg/kg single dose, Pre −24 hr, 1 mg/kg) was 96%. For the same substance, the “Survival Differential” value [2, 33] was 71% and 96% and 100%, the Survival treatment [2, 33] was 71% and 96% and 100% and the “Survival Differential” value ([2]; 11 Gy, 3 mg/kg single dose, Pre −24 hr) was 100%. The Survival treatment ([2]; 11 Gy, 3 mg/kg single dose, Pre −24 hr, 3 mg/kg) was 100%, the Survival treatment ([2]; 11 Gy, 3 mg/kg single dose, Pre −24 hr, listed as TPOm, 3 mg/kg) was 100% and the “Survival Differential” value [2, 34] was 92%. For the same substance, the Survival treatment [2, 34] was 92%, the “Survival Differential” value [2, 35] was 75% and the Survival treatment [2, 35] was 75%. For the same substance, the “Survival Differential” value [2, 36] was 88%, the Survival treatment [2, 36] was 88% and the “Survival Differential” value [2, 37] was 83%. For the same substance, the Survival treatment [2, 37] was 83%, the “Survival Differential” value [2, 38] was 54% and the Survival treatment [2, 38] was 54%. For the same substance, the “Survival Differential” value [2, 39] was 46%, the Survival treatment [2, 39] was 46% and the “Survival Differential” value [2, 40] was 42%. The Survival treatment [2, 40] was 42%, the “Survival Differential” value [2, 41] was 13% and the Survival treatment [2, 41] was 13%. For the same substance, the “Survival Differential” value [2, 42] was 1%, the Survival treatment [2, 42] was 1% and the “enhancement in survival efficacy” value ([2]; CD2F1 male, 1 mg/kg administered 24 h prior to radiation exposure (FIG. 13)) was ~100%. For the same substance, the survival ([2]; CD2F1 male, 9.35 Gy, 0.3 mg/kg 24 h pre-TBI (FIG. 3A)) was 83%, the “survival, 3-dose regimen” value ([2]; CD2F1 male, 9.35 Gy, 0.3 mg/kg/dose SC at 24 h+48 h+72 h post-TBI) was 50% and the “survival, 2-dose regimen” value ([2]; CD2F1 male, 9.35 Gy, 0.3 mg/kg/dose SC at 24 h+48 h post-TBI) was 54%. For the same substance, the survival ([2]; CD2F1 male, 9.75 Gy, RWJ-800088 treated groups 0.1-3 mg/kg 24 h pre-TBI (FIG. 3B)) was 92-100%, the percent survival ([2]; CD2F1 male, 10.5 Gy, range of doses 0.1-3 mg/kg 24 h pre-TBI (FIG. 3C)) was 90-100% and the Effects ([2]; Mice, whole body irradiation, whole wrapped cell: Enhanced survival, mitigation against thrombocytopenia, anemia, reduced adhesion protein expression on endothelial cells) was “Enhanced survival,”. The “Dose Reduction Factor” value ([2]; 1 mg/kg 24 h post-TBI (FIG. 14)) was 1.05, the “Dose Reduction Factor” value ([2]; 1 mg/kg 24 h pre-TBI (FIG. 15)) was 1.38 and the “optimum single dose as mitigator of radiation induced mortality in mice” value ([2]; post-TBI administration) was 0.3 to 1.0 mg/kg.
